Counter-ions that a name gives are not always drawn. Like-named read-outs stand apart in the source and are kept apart here.
Tests used:
[1] = tested on: NCI-H292 lung cancer cells; experiment: FDA drug screening, complete media vs cholesterol-free media with simvastatin (TABLE 2); format: cell-based, human
[2] = tested on: NCI-H292 lung cancer cells; experiment: FDA drug screening, complete media vs cholesterol-free media without statin (TABLE 1); format: cell-based, human
[3] = NCI-H292 cells, cholesterol-free media with simvastatin 0.04 μM, FDA drug library screen (TABLE 2)
[4] = NCI-H292 cells, complete media, FDA drug library screen (TABLE 2)
[5] = complete media minus cholesterol-free media + simvastatin (0.04 μM), >0 enhanced anti-cancer activity, about 0 neutral, <0 antagonist
[6] = Complete minus Cholesterol-free, >0 enhanced anti-cancer activity, about 0 neutral, <0 antagonist
[7] = NCI-H292 cells, cholesterol-free media without statin, FDA drug library screen
[8] = NCI-H292 cells, complete media, FDA drug library screen
[9] = NCI-H292 cells, drug in cholesterol-free media with simvastatin 0.04 μM
[10] = NCI-H292 cells, drug in complete media
[11] = complete media vs cholesterol-free media + simvastatin (0.04 μM), >0 enhanced anti-cancer activity, about 0 neutral, <0 antagonist
[12] = NCI-H292 cells, cholesterol-free media without statin
[13] = Complete minus Cholesterol-free, […]
[14] = NCI-H292 cells, FDA library drug in cholesterol-free media with simvastatin 0.04 μM
[15] = NCI-H292 cells, FDA library drug in complete media
[16] = complete media vs cholesterol-free media + simvastatin (0.04 μM), […]
[17] = NCI-H292 cells in cholesterol-free media without statin
[18] = NCI-H292 cells in complete media
[19] = NCI-H292 cells, FDA drug library screen, cholesterol-free media with simvastatin 0.04 μM
[20] = NCI-H292 cells, FDA drug library screen, complete media
[21] = Complete minus Cholesterol-free, greater than 0 enhanced anti-cancer activity, about 0 neutral, below 0 antagonists
[22] = complete vs cholesterol-free media, greater than 0 enhanced anti-cancer activity, about 0 neutral, below 0 antagonists
[23] = NCI-H292 cells, cholesterol-free media with simvastatin 0.04 μM, cell growth value in FDA drug screen
[24] = NCI-H292 cells, complete media, cell growth value in FDA drug screen
[25] = complete media minus cholesterol-free media + simvastatin, >0 enhanced anti-cancer activity, about 0 neutral, <0 antagonist
[26] = Complete minus Cholesterol-free, greater than 0 enhanced anti-cancer activity, about 0 neutral, below 0 antagonist
[27] = NCI-H292 cells, FDA drug library screen, cholesterol-free media without statin
[28] = complete vs cholesterol-free media, >0 enhanced anti-cancer activity, about 0 neutral, <0 antagonist

Molecule: CCCCCCCCN=c1ccn(CCCCCCCCCCn2ccc(=NCCCCCCCC)cc2)cc1 [Octenidine (dihydrochloride)]
- Cholesterol-free media + simvastatin (0.04 μM) [1, 3]: −0.0001133
- Complete Media [1, 4]: −0.0003925
- Difference [1, 5]: 0.00
- Difference [2, 6]: 0.01
- Cholesterol-free [2, 7]: 0.00456
- Complete [2, 8]: 0.01483

Molecule: [H]/N=C(/N)NS(=O)(=O)c1ccc(N)cc1 [Sulfaguanidine]
- Cholesterol-free media + simvastatin (0.04 μM) [1, 9]: 1.092
- Complete Media [1, 10]: 0.8866
- Difference [1, 11]: −0.21
- Difference [2, 6]: −0.24
- Cholesterol-free [2, 12]: 1.183
- Complete ([2]; NCI-H292 cells, complete media): 0.939

Molecule: C[C@H]1O[C@@H](O[C@H]2[C@@H](O)C[C@H](O[C@H]3[C@@H](O)C[C@H](O[C@H]4CC[C@@]5(C)[C@H](CC[C@@H]6[C@@H]5CC[C@]5(C)[C@@H](C7=CC(=O)OC7)CC[C@]65O)C4)O[C@@H]3C)O[C@@H]2C)C[C@H](O)[C@@H]1O [Digitoxin]
- Cholesterol-free media + simvastatin (0.04 μM) [1, 3]: 0.01053
- Complete Media [1, 4]: −0.02212
- Difference ([1]; complete media minus cholesterol-free media + simvastatin (0.04 μM), […]): −0.03
- Difference [2, 13]: 0.04
- Cholesterol-free [2, 7]: −0.01931
- Complete [2, 8]: 0.0198

Molecule: COC(=O)C1=C(C)NC(C)=C(C(=O)OCCN(C)Cc2ccccc2)C1c1cccc([N+](=O)[O-])c1 (stereo not drawn) [Nicardipine (hydrochloride)]
- Cholesterol-free media + simvastatin (0.04 μM) [1, 14]: 1.292
- Complete Media [1, 15]: 0.8256
- Difference [1, 11]: −0.47
- Difference [2, 6]: −0.01
- Cholesterol-free [2, 7]: 0.9198
- Complete [2, 8]: 0.9062

Molecule: CC(C)C(Br)C(=O)NC(N)=O (stereo not drawn) [Bromisoval]
- Cholesterol-free media + simvastatin (0.04 μM) [1, 9]: 1.086
- Complete Media [1, 10]: 0.9233
- Difference [1, 16]: −0.16
- Difference [2, 13]: −0.47
- Cholesterol-free [2, 17]: 1.334
- Complete [2, 18]: 0.8605

Molecule: CC1(C)C[C@@H]1C(=O)N/C(=C\CCCCSC[C@H](N)C(=O)O)C(=O)O [Cilastatin]
- Cholesterol-free media + simvastatin (0.04 μM) [1]: 1.258
- Complete Media [1]: 0.85
- Difference [1]: −0.41
- Cholesterol-free [2]: 1.185
- Complete [2]: 0.8515
- Difference [2]: −0.33

Molecule: N#C[C@@H]1CCCN1C(=O)CNC12CC3CC(CC(O)(C3)C1)C2 [Vildagliptin]
- Cholesterol-free media + simvastatin (0.04 μM) [1, 19]: 1.588
- Complete Media [1, 20]: 1.466
- Difference [1, 11]: −0.12
- Difference [2, 21]: −0.50
- Cholesterol-free [2, 17]: 1.213
- Complete [2, 18]: 0.7138

Molecule: O=C(O)CCCN1CCC(O[C@@H](c2ccc(Cl)cc2)c2ccccn2)CC1 [Bepotastine (besilate)]
- Cholesterol-free media + simvastatin (0.04 μM) [1, 14]: 1.245
- Complete Media [1, 15]: 0.8639
- Difference [1, 11]: −0.38
- Cholesterol-free [2, 12]: 1.237
- Complete ([2]; NCI-H292 cells, complete media): 0.8985
- Difference [2, 22]: −0.34

Molecule: O=C1c2cccc3c2[C@H](CCC3)CN1[C@@H]1CN2CCC1CC2 [Palonosetron (Hydrochloride)]
- Cholesterol-free media + simvastatin (0.04 μM) [1, 9]: 1.184
- Complete Media [1, 10]: 0.927
- Difference [1, 11]: −0.26
- Cholesterol-free [2, 12]: 1.075
- Complete ([2]; NCI-H292 cells, complete media): 0.7009
- Difference [2, 22]: −0.37

Molecule: CC[C@@]1(O)C(=O)OCc2c1cc1n(c2=O)Cc2cc3c(CN(C)C)c(O)ccc3nc2-1 [Topotecan (Hydrochloride)]
- Cholesterol-free media + simvastatin (0.04 μM) [1, 19]: 0.1355
- Complete Media [1, 20]: 0.04638
- Difference [1, 11]: −0.09
- Difference [2, 6]: −0.03
- Cholesterol-free [2, 7]: 0.05524
- Complete [2, 8]: 0.02609

Molecule: CCN(CC)C(=S)SSC(=S)N(CC)CC [Disulfiram]
- Cholesterol-free media + simvastatin (0.04 μM) [1, 19]: 0.005061
- Complete Media [1, 20]: −0.0784
- Difference [1, 11]: −0.08
- Difference [2, 6]: −0.02
- Cholesterol-free [2, 7]: 0.0139
- Complete [2, 8]: −0.001922

Molecule: O=C1c2c(O)cccc2Cc2cccc(O)c21 [Dithranol]
- Cholesterol-free media + simvastatin (0.04 μM) [1, 23]: 0.8476
- Complete Media [1, 24]: 0.9249
- Difference [1, 25]: 0.08
- Cholesterol-free [2, 12]: 1.314
- Complete ([2]; NCI-H292 cells, complete media): 0.9897
- Difference [2, 22]: −0.32

Molecule: CC(C)C[C@H](N)C(=O)O [L-Leucine]
- Cholesterol-free media + simvastatin (0.04 μM) [1, 9]: 1.064
- Complete Media [1, 10]: 0.8826
- Difference [1, 16]: −0.18
- Cholesterol-free [2, 7]: 1.354
- Complete [2, 8]: 1.837
- Difference ([2]; complete vs cholesterol-free media, […]): 0.48

Molecule: OC[C@@H](O)[C@@H](O[C@H]1O[C@H](CO)[C@@H](O)[C@H](O)[C@H]1O)[C@H](O)[C@@H](O)CO [Maltitol]
- Cholesterol-free media + simvastatin (0.04 μM) [1, 14]: 1.264
- Complete Media [1, 15]: 0.9377
- Difference [1, 11]: −0.33
- Cholesterol-free [2, 12]: 1.093
- Complete ([2]; NCI-H292 cells, complete media): 0.7088
- Difference [2, 22]: −0.38

Molecule: CNC[C@H](O)c1ccc(O)c(O)c1.O=C(O)C(O)C(O)C(=O)O [L-Epinephrine (Bitartrate)]
- Cholesterol-free media + simvastatin (0.04 μM) [1, 23]: 1.096
- Complete Media [1, 24]: 1.136
- Difference [1, 25]: 0.04
- Difference [2, 26]: −0.14
- Cholesterol-free [2, 27]: 1.247
- Complete [2, 20]: 1.112

Molecule: C[C@H](O)C(=O)Nc1c(I)c(C(=O)NC(CO)CO)c(I)c(C(=O)NC(CO)CO)c1I [Iopamidol]
- Cholesterol-free media + simvastatin (0.04 μM) [1, 14]: 1.516
- Complete Media [1, 15]: 1.092
- Difference [1, 11]: −0.42
- Difference [2, 26]: −0.15
- Cholesterol-free [2, 27]: 1.136
- Complete [2, 20]: 0.9871

Molecule: Nc1ccc(S(=O)(=O)NC(=O)c2ccccc2)cc1 [Sulfabenzamide]
- Cholesterol-free media + simvastatin (0.04 μM) [1, 9]: 1.231
- Complete Media [1, 10]: 1.041
- Difference [1, 11]: −0.19
- Cholesterol-free [2, 12]: 1.412
- Complete ([2]; NCI-H292 cells, complete media): 1.023
- Difference [2, 22]: −0.39

Molecule: CCCCC1C(=O)N(c2ccccc2)N(c2ccccc2)C1=O [Phenylbutazone]
- Cholesterol-free media + simvastatin (0.04 μM) [1, 23]: 1.076
- Difference [1, 25]: 0.07
- Difference [2, 6]: −0.26
- Cholesterol-free [2, 12]: 1.376
- Complete ([2]; NCI-H292 cells, complete media): 1.114

Molecule: COc1cc(CNC(=O)CCCC/C=C/C(C)C)ccc1O [Capsaicin]
- Cholesterol-free media + simvastatin (0.04 μM) [1, 3]: 1.403
- Complete Media [1, 4]: 1.38
- Difference [1, 5]: −0.02
- Difference [2, 6]: −0.28
- Cholesterol-free [2, 12]: 1.197
- Complete ([2]; NCI-H292 cells, complete media): 0.9142

Molecule: Nc1ccn([C@@H]2O[C@H](CO)[C@@H](O)[C@@H]2O)c(=O)n1 [Cytarabine]
- Cholesterol-free media + simvastatin (0.04 μM) [1, 19]: 0.2698
- Complete Media [1, 20]: 0.1951
- Difference [1, 11]: −0.07
- Difference [2, 6]: −0.05
- Cholesterol-free [2, 7]: 0.08949
- Complete [2, 8]: 0.04199

Molecule: CC[C@]12CCCN3CCc4c(n(c5ccccc45)[C@@](O)(C(=O)OC)C1)[C@@H]32 [Vincamine]
- Cholesterol-free media + simvastatin (0.04 μM) [1, 3]: 0.8199
- Complete Media [1, 4]: 0.7686
- Difference [1, 5]: −0.05
- Cholesterol-free [2, 7]: 0.6922
- Complete [2, 8]: 1.178
- Difference [2, 28]: 0.49

Molecule: CC(C)OC(=O)OCOP(=O)(CO[C@H](C)Cn1cnc2c(N)ncnc21)OCOC(=O)OC(C)C [Tenofovir (Disoproxil)]
- Cholesterol-free media + simvastatin (0.04 μM) [1, 14]: 1.242
- Complete Media [1, 15]: 0.9076
- Difference [1, 11]: −0.33
- Difference [2, 21]: −0.65
- Cholesterol-free [2, 17]: 1.348
- Complete [2, 18]: 0.7009

Molecule: CC(CCc1ccccc1)NCC(O)c1ccc(O)c(C(N)=O)c1 (stereo not drawn) [Labetalol (hydrochloride)]
- Cholesterol-free media + simvastatin (0.04 μM) [1, 3]: 1.147
- Complete Media [1, 4]: 1.128
- Difference [1, 5]: −0.02
- Difference [2, 21]: −0.64
- Complete [2, 18]: 0.9816

Molecule: CC(C)CN(C[C@@H](O)[C@H](Cc1ccccc1)NC(=O)O[C@H]1CCOC1)S(=O)(=O)c1ccc(N)cc1 [Amprenavir]
- Cholesterol-free media + simvastatin (0.04 μM) [1, 19]: 1.669
- Complete Media [1, 20]: 1.996
- Difference [1, 25]: 0.33
- Cholesterol-free [2, 7]: 0.8915
- Complete [2, 8]: 1.403
- Difference [2, 28]: 0.51

Molecule: O=C(OCCOCCO)c1ccccc1Nc1cccc(C(F)(F)F)c1 [Etofenamate]
- Cholesterol-free media + simvastatin (0.04 μM) [1, 14]: 2.387
- Complete Media [1, 15]: 1.527
- Difference [1, 11]: −0.86
- Difference [2, 6]: 0.02
- Cholesterol-free [2, 7]: 1.014
- Complete [2, 8]: 1.036

Molecule: C[C@H]1C[C@@H]2[C@H]([C@@H](O)C[C@@]3(C)[C@H]2CC[C@]3(O)C(=O)COC(=O)CCC(=O)[O-])[C@@]2(C)C=CC(=O)C=C12.[Na+]
- Cholesterol-free media + simvastatin (0.04 μM) [1, 19]: 0.7536
- Complete Media [1, 20]: 0.682
- Difference [1, 11]: −0.07
- Difference [2, 6]: 0.02
- Cholesterol-free [2, 7]: 0.6071
- Complete [2, 8]: 0.6313

Molecule: Cc1ccc(C(=O)c2ccc(CC(=O)O)n2C)cc1 [Tolmetin]
- Cholesterol-free media + simvastatin (0.04 μM) [1, 14]: 1.718
- Complete Media [1, 15]: 1.392
- Difference [1, 11]: −0.33
- Cholesterol-free [2, 12]: 0.9799
- Complete ([2]; NCI-H292 cells, complete media): 0.6144
- Difference [2, 22]: −0.37

Molecule: Fluvoxamine (maleate)
- Cholesterol-free media + simvastatin (0.04 μM) [1, 3]: 0.9929
- Complete Media [1, 4]: 0.9426
- Difference [1, 5]: −0.05
- Difference [2, 26]: −0.11
- Cholesterol-free [2, 27]: 1.142

Source: patent US20250144067A1, “PERSONALIZED STARVATION THERAPY FOR CANCER” (Faeth Therapeutics, Inc., priority 2021, published 2025)
